Experimental data from ChEMBL document CHEMBL1138980, “Triazolo[1,5-a]pyrimidines as novel CDK2 inhibitors: protein structure-guided design and SAR” (Bioorg Med Chem Lett, 2006).

Experiments:
[1] = molecular target: Cyclin-dependent kinase 1 (Homo sapiens, UniProt P06493); experiment: Inhibition of CDK1 using 100 uM ATP
[2] = molecular target: Glycogen synthase kinase-3 beta (Homo sapiens, UniProt P49841); experiment: Inhibition of GSK3-beta using 10 uM ATP
HCT-116 = experiment: Antiproliferative activity against HCT116 colon cancer cell line; type: functional; settings: Homo sapiens
[3] = molecular target: Cyclin-dependent kinase 2 (Homo sapiens, UniProt P24941); experiment: Inhibition of CDK2 using 100 uM ATP
[4] = Inhibition of PDK1; set-up: species or system Homo sapiens
[5] = molecular target: T1, Serine/threonine-protein kinase Chk1 (Homo sapiens, UniProt O14757); experiment: Inhibition of Chk1
T1 sequence (O14757 whole entry): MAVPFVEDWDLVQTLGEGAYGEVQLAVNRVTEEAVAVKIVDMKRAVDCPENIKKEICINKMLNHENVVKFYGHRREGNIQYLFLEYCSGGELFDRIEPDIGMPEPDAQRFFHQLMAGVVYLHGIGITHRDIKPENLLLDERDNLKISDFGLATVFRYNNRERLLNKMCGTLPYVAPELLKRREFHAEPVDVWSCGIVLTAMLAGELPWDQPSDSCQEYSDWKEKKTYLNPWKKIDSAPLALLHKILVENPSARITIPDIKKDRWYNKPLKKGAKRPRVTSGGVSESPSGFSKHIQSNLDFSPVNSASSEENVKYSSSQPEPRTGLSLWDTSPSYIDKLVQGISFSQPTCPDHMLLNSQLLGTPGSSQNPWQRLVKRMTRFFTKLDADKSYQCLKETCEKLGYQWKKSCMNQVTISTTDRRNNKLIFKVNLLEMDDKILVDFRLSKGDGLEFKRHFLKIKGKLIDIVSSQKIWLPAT

Sequence of Glycogen synthase kinase-3 beta (P49841 whole entry): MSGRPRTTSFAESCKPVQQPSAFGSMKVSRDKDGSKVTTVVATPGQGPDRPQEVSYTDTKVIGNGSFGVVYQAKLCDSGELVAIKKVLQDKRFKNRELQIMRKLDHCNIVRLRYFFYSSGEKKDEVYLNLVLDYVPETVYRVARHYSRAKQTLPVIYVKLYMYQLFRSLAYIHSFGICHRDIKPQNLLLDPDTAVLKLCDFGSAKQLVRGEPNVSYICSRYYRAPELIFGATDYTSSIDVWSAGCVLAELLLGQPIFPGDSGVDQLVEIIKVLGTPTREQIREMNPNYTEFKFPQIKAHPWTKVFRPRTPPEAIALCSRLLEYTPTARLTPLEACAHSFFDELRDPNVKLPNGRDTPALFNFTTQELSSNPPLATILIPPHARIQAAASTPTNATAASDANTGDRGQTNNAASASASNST
Sequence of Cyclin-dependent kinase 1 (P06493 whole entry): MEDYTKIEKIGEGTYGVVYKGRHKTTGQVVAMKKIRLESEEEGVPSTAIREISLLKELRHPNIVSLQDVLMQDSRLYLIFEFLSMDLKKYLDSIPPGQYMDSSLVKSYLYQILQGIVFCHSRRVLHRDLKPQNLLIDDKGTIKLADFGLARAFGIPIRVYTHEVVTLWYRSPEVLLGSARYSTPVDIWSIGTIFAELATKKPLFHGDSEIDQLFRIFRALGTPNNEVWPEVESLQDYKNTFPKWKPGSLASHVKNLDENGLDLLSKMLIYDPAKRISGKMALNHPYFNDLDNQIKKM

Compound	IC50 [1] [µM]	IC50 [2] [µM]	GI50 (HCT-116) [µM]	IC50 [3] [µM]	IC50 [4] [µM]	IC50 [5] [µM]
NS(=O)(=O)c1ccc(Nc2cc(OC3CCCCC3)nc3ncnn23)cc1	0.14	0.19	25			
CCN(CC)c1cc(Nc2ccc(S(N)(=O)=O)cc2)n2ncnc2n1	3.4	11	23	0.4		
NS(=O)(=O)c1ccc(Nc2cc(NC3CCCCC3)nc3ncnn23)cc1		0.97	31			
NS(=O)(=O)c1ccc(Nc2cc(N[C@H]3CC[C@H](O)CC3)nc3ncnn23)cc1			39			
NS(=O)(=O)c1ccc(Nc2cc(N[C@H]3CC[C@H](N)CC3)nc3ncnn23)cc1		0.78	> 80		43	
NS(=O)(=O)c1ccc(Nc2nc(OCC3CCCCC3)c3nc[nH]c3n2)cc1		0.04			< 0.5	< 0.5
Brc1cccc(-c2cc(NCc3ccncc3)n3nccc3n2)c1			8			

The next lines start with results.

IC50 [1] [µM]	IC50 [2] [µM]	GI50 (HCT-116) [µM]	IC50 [3] [µM]	IC50 [4] [µM]	Compound	IC50 [5] [µM]
5.6	20	> 80	0.12	> 200	CN(C)S(=O)(=O)c1ccc(Nc2cc(N[C@H]3CC[C@H](N)CC3)nc3ncnn23)cc1	21
16	43	> 80			CS(=O)(=O)c1ccc(Nc2cc(N[C@H]3CC[C@H](N)CC3)nc3ncnn23)cc1	
	29				NS(=O)(=O)c1ccc(Nc2cc(OCC3CCCCC3)nc3ncnn23)cc1	
4.3	50	> 80			N[C@H]1CC[C@H](Nc2cc(Nc3ccc(S(=O)(=O)c4ccccc4)cc3)n3ncnc3n2)CC1	
